“And” between values parts separate entries of the source, which are not always exact repeats. Equal values may be shown once.
What was measured:
[1] = parameters: method as in PMID 18537837; details: endocyclic amine; cited from earlier work
[2] = molecular target: T1, HsGUS (human GUS) (Homo sapiens, UniProt P08236); assay: GUS inhibition assay, hydrolysis of 4-methylumbelliferyl-β-glucuronide, HsGUS; type: biochemical; parameters: GUS activity (hydrolysis rate of MUG): unit not given here; details: for Ki: HsGUS
T1 construct: HsGUS was prepared as described[37]; made in house
T1 sequence (P08236 23-651): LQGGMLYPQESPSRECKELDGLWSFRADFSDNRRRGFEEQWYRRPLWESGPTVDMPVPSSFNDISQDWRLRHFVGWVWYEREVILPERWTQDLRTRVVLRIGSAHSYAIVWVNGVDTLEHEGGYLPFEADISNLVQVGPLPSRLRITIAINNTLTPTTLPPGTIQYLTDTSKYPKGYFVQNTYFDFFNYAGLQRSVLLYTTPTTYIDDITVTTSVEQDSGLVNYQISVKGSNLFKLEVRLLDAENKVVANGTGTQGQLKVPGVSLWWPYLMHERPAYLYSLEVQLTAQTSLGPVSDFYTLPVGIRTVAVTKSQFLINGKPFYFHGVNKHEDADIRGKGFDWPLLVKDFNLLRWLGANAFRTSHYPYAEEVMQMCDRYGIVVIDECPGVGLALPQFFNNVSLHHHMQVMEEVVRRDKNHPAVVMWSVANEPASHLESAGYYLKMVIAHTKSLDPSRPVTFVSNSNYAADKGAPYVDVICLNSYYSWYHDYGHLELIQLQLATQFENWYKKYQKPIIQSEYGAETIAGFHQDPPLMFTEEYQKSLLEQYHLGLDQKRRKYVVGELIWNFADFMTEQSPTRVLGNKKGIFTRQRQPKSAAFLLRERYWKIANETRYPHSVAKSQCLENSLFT

In the case of `O=C(O)[C@H]1CNC[C@@H](O)[C@@H]1O` [Inhibitor 1, Uronic isofagomine], the pKa [1] is listed as 8.0, the Ki [2] is listed as 0.18 µM and the Ki ([2]; 50 mM sodium acetate pH 4.5, 37 °C) is listed as 0.18 ± 0.002 µM. The “GUS activity (hydrolysis rate of MUG)” value ([2]; [Inhibitor 1] =6.25 nM, [MUG] 0.1 mM) was 1052.77 and 919.367, the “GUS activity (hydrolysis rate of MUG)” value ([2]; [Inhibitor 1] =6.25 nM, [MUG] 0.2 mM) was 1682.62 and 1656.5 and the “GUS activity (hydrolysis rate of MUG)” value ([2]; [Inhibitor 1] =6.25 nM, [MUG] 0.4 mM) was 2736.45 and 2863.61. The “GUS activity (hydrolysis rate of MUG)” value ([2]; [Inhibitor 1] =6.25 nM, [MUG] 0.6 mM) was 3626.7 and 3614.16, the “GUS activity (hydrolysis rate of MUG)” value ([2]; [Inhibitor 1] =6.25 nM, [MUG] 0.8 mM) was 4294.49 and 4051.74 and the “GUS activity (hydrolysis rate of MUG)” value ([2]; [Inhibitor 1] =6.25 nM, [MUG] 1.2 mM) was 5041.75 and 5285.84. For the same compound, the “GUS activity (hydrolysis rate of MUG)” value ([2]; [Inhibitor 1] =6.25 nM, [MUG] 1.6 mM) was 5716.1 and 5569.72, the “GUS activity (hydrolysis rate of MUG)” value ([2]; [Inhibitor 1] =6.25 nM, [MUG] 2 mM) was 6253.7 and 6084.56 and the “GUS activity (hydrolysis rate of MUG)” value ([2]; [Inhibitor 1] =12.5 nM, [MUG] 0.1 mM) was 964.973 and 946.536. For the same compound, the “GUS activity (hydrolysis rate of MUG)” value ([2]; [Inhibitor 1] =12.5 nM, [MUG] 0.2 mM) was 1634.13 and 1650.2, the “GUS activity (hydrolysis rate of MUG)” value ([2]; [Inhibitor 1] =12.5 nM, [MUG] 0.4 mM) was 2735.98 and 2661.78 and the “GUS activity (hydrolysis rate of MUG)” value ([2]; [Inhibitor 1] =12.5 nM, [MUG] 0.6 mM) was 3585.06 and 3536.5. For the same compound, the “GUS activity (hydrolysis rate of MUG)” value ([2]; [Inhibitor 1] =12.5 nM, [MUG] 0.8 mM) was 4058.66 and 4004.34, the “GUS activity (hydrolysis rate of MUG)” value ([2]; [Inhibitor 1] =12.5 nM, [MUG] 1.2 mM) was 4753.61 and 4787.97 and the “GUS activity (hydrolysis rate of MUG)” value ([2]; [Inhibitor 1] =12.5 nM, [MUG] 1.6 mM) was 5496.19 and 5468.5. The “GUS activity (hydrolysis rate of MUG)” value ([2]; [Inhibitor 1] =12.5 nM, [MUG] 2 mM) was 6215.35 and 6326.21, the “GUS activity (hydrolysis rate of MUG)” value ([2]; [Inhibitor 1] =25 nM, [MUG] 0.1 mM) was 888.487 and 880.944 and the “GUS activity (hydrolysis rate of MUG)” value ([2]; [Inhibitor 1] =25 nM, [MUG] 0.2 mM) was 1602.44 and 1479.41. The “GUS activity (hydrolysis rate of MUG)” value ([2]; [Inhibitor 1] =25 nM, [MUG] 0.4 mM) was 2621.31 and 2595.47, the “GUS activity (hydrolysis rate of MUG)” value ([2]; [Inhibitor 1] =25 nM, [MUG] 0.6 mM) was 3374.76 and 3226.51 and the “GUS activity (hydrolysis rate of MUG)” value ([2]; [Inhibitor 1] =25 nM, [MUG] 0.8 mM) was 3934.08 and 3700.76. The “GUS activity (hydrolysis rate of MUG)” value ([2]; [Inhibitor 1] =25 nM, [MUG] 1.2 mM) was 4557.18 and 4846.86, the “GUS activity (hydrolysis rate of MUG)” value ([2]; [Inhibitor 1] =25 nM, [MUG] 1.6 mM) was 5394.55 and 5298.67 and the “GUS activity (hydrolysis rate of MUG)” value ([2]; [Inhibitor 1] =25 nM, [MUG] 2 mM) was 6010.34 and 6068.98. For the same compound, the “GUS activity (hydrolysis rate of MUG)” value ([2]; [Inhibitor 1] =50 nM, [MUG] 0.1 mM) was 874.409 and 866.834, the “GUS activity (hydrolysis rate of MUG)” value ([2]; [Inhibitor 1] =50 nM, [MUG] 0.2 mM) was 1446.88 and 1448.8 and the “GUS activity (hydrolysis rate of MUG)” value ([2]; [Inhibitor 1] =50 nM, [MUG] 0.4 mM) was 2554.3 and 2362.71. The “GUS activity (hydrolysis rate of MUG)” value ([2]; [Inhibitor 1] =50 nM, [MUG] 0.6 mM) was 3157.04 and 3034.34, the “GUS activity (hydrolysis rate of MUG)” value ([2]; [Inhibitor 1] =50 nM, [MUG] 0.8 mM) was 3775.39 and 3558.36 and the “GUS activity (hydrolysis rate of MUG)” value ([2]; [Inhibitor 1] =50 nM, [MUG] 1.2 mM) was 4410.62 and 4573.1. The “GUS activity (hydrolysis rate of MUG)” value ([2]; [Inhibitor 1] =50 nM, [MUG] 1.6 mM) was 4956.91 and 5204.72, the “GUS activity (hydrolysis rate of MUG)” value ([2]; [Inhibitor 1] =50 nM, [MUG] 2 mM) was 5814.43 and 5846.27 and the “GUS activity (hydrolysis rate of MUG)” value ([2]; [Inhibitor 1] =100 nM, [MUG] 0.1 mM) was 714.467 and 698.837. The “GUS activity (hydrolysis rate of MUG)” value ([2]; [Inhibitor 1] =100 nM, [MUG] 0.2 mM) was 1267.32 and 1255.83, the “GUS activity (hydrolysis rate of MUG)” value ([2]; [Inhibitor 1] =100 nM, [MUG] 0.4 mM) was 2205.11 and 2224.51 and the “GUS activity (hydrolysis rate of MUG)” value ([2]; [Inhibitor 1] =100 nM, [MUG] 0.6 mM) was 2972.37 and 2813. For the same compound, the “GUS activity (hydrolysis rate of MUG)” value ([2]; [Inhibitor 1] =100 nM, [MUG] 0.8 mM) was 3383.16 and 3413.02, the “GUS activity (hydrolysis rate of MUG)” value ([2]; [Inhibitor 1] =100 nM, [MUG] 1.2 mM) was 4189.2 and 4174.02 and the “GUS activity (hydrolysis rate of MUG)” value ([2]; [Inhibitor 1] =100 nM, [MUG] 1.6 mM) was 4730.59 and 4939.86. The “GUS activity (hydrolysis rate of MUG)” value ([2]; [Inhibitor 1] =100 nM, [MUG] 2 mM) was 5626.48 and 5332.35, the “GUS activity (hydrolysis rate of MUG)” value ([2]; [Inhibitor 1] =200 nM, [MUG] 0.1 mM) was 493.269 and 528.779 and the “GUS activity (hydrolysis rate of MUG)” value ([2]; [Inhibitor 1] =200 nM, [MUG] 0.2 mM) was 887.805 and 953.041. The “GUS activity (hydrolysis rate of MUG)” value ([2]; [Inhibitor 1] =200 nM, [MUG] 0.4 mM) was 1572.94 and 1681.59, the “GUS activity (hydrolysis rate of MUG)” value ([2]; [Inhibitor 1] =200 nM, [MUG] 0.6 mM) was 2196.34 and 2140.47 and the “GUS activity (hydrolysis rate of MUG)” value ([2]; [Inhibitor 1] =200 nM, [MUG] 0.8 mM) was 2605.47 and 2684.29. The “GUS activity (hydrolysis rate of MUG)” value ([2]; [Inhibitor 1] =200 nM, [MUG] 1.2 mM) was 3423.7 and 3486.94, the “GUS activity (hydrolysis rate of MUG)” value ([2]; [Inhibitor 1] =200 nM, [MUG] 1.6 mM) was 4057.78 and 4000.72 and the “GUS activity (hydrolysis rate of MUG)” value ([2]; [Inhibitor 1] =200 nM, [MUG] 2 mM) was 4782.69 and 4439.05.
